The test has as its target T1, human β3 adrenergic receptor (Homo sapiens, UniProt P13945).
T1 construct: stably transfected with the cloned β-adrenergic receptor (β1, β2 or β3); expressed in transfected cells; host or cells: Chinese hamster ovary (CHO) cells, stably transfected
Put plainly: Functional assay: cAMP production (LANCE TR-FRET) in CHO cells stably transfected with cloned β3 adrenergic receptor. The format is cell-based. Particulars: Table 3; cAMP production, CHO cells expressing human β3 AR; read-out: Human β3 functional. As to the method:
Functional Assay: cAMP production in response to ligand is measured according to Barton, et al. (1991, Agonist-induced desensitization of D2 dopamine receptors in human Y-79 retinoblastoma cells. Mol. Pharmacal. v3229:650-658) modified as follows, cAMP production is measured using a homogenous time-resolved fluorescence resonance energy transfer immunoassay (LANCE™, Perkin Elmer) according to the manufacture's instructions. Chinese hamster ovary (CHO) cells, stably transfected with the cloned β-adrenergic receptor (β1, β2 or β3) are harvested after 3 days of subculturing. Harvesting of cells is done with Enzyme-free Dissociation Media (Specialty Media). Cells are then counted and resuspended in assay buffer (Hank's Balanced salt solution supplemented with 5 mM HEPES, […]) containing a phosphodiesterase inhibitor (IBMX, 0.6 mM). The reaction is initiated by mixing 6,000 cells in 6 μL with 6 μL Alexa Fluor labeled cAMP antibody (LANCE™ kit) which is then added to an assay well containing 12 μL of compound (diluted in assay buffer to 2× final concentration). The reaction proceeds for 30 min at room temperature and is terminated by the addition of 24 ul detection buffer (LANCE™ kit). The assay plate is then incubated for 1 h at room temperature and time-resolved fluorescence measured on a Perkin Elmer Envision reader or equivalent. The unknown cAMP level is determined by comparing fluorescence levels to a cAMP standard curve.
The non-selective, full agonist β-adrenergic ligand isoproterenol is used at all three receptors to determine maximal stimulation. The human β3 adrenergic receptor (AR) selective ligand (S)-N-[4-[2-[[2-hydroxy-3-(4-hydroxyphenoxy)propyl]amino]ethyl]-phenyl]-4-iodobenzenesulfonamide is used as a control in all assays. Isoproterenol is titrated at a final concentration in the assay of 10^-10 M to 10-5 and the selective ligand (S)-N-[4-[2-[[2-hydroxy-3-(4-hydroxyphenoxy)propyl]amino]ethyl]phenyl]-4-iodobenzenesulfonamide is titrated at the β3 receptor at concentration of 10^-10 M to 10^-5 M. Unknown ligands are titrated at all 3 β-adrenergic receptor subtypes at a final concentration in the assay of 10^-10 M to 10^-5 M to determine the EC50. The EC50 is defined as the concentration of compound that gives 50% activation of its own maximum. Data are analyzed using Microsoft Excel and Graphpad Prism or an internally developed data analysis software package.
T1 sequence (P13945 whole entry): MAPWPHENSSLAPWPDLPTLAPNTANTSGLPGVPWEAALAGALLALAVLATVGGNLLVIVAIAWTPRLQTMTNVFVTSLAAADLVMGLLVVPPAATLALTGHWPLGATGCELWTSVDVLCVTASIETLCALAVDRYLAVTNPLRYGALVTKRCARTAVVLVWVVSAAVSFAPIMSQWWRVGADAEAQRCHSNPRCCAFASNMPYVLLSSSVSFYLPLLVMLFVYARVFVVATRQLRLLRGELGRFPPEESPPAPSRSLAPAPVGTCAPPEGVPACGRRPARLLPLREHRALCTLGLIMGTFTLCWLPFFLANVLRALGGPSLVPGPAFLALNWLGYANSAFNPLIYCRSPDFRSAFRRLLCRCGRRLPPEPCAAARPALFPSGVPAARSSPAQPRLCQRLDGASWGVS
With `Cc1nc2c(s1)CCCC2C(=O)Nc1ccc(CC2CC[C@H]([C@H](O)c3cccnc3)N2)cc1` (single isomer, unassigned) [Example 133], the EC50 is 11 to 100 nM.
Under `Cc1nc2c(s1)CCCC2C(=O)Nc1ccc(CC2CC[C@H]([C@H](O)c3cccnc3)N2)cc1` (single isomer, unassigned) [Example 134] stands 11 to 100 nM; under `O=C(Cc1nc2c(s1)CCC2C(=O)Nc1ccc(CC2CC[C@H]([C@H](O)c3cccnc3)N2)cc1)NCc1ccccc1` (single isomer, unassigned) [Example 135], 11 to 100 nM; under `O=C(Cc1nc2c(s1)CCC2C(=O)Nc1ccc(CC2CC[C@H]([C@H](O)c3cccnc3)N2)cc1)NCc1ccccc1` (single isomer, unassigned) [Example 136], 1 to 10 nM.
The value for `O=C(O)c1nc2c(s1)CCC2C(=O)Nc1ccc(CC2CC[C@H]([C@H](O)c3cccnc3)N2)cc1` (single isomer, unassigned) [Example 137] was 1 to 10 nM.
The value for `O=C(O)c1nc2c(s1)CCC2C(=O)Nc1ccc(CC2CC[C@H]([C@H](O)c3cccnc3)N2)cc1` (single isomer, unassigned) [Example 138] was 11 to 100 nM.
`O=C(Nc1ccc(CC2CC[C@H]([C@H](O)c3cccnc3)N2)cc1)C1CCCc2ccnn21` (single isomer, unassigned) [Example 139]: the EC50 lay within 101 to 1000 nM.
Under `O=C(Nc1ccc(CC2CC[C@H]([C@H](O)c3cccnc3)N2)cc1)C1CCCc2ccnn21` (single isomer, unassigned) [Example 140] stands 11 to 100 nM.
The value for `CC(C(=O)Nc1ccc(CC2CC[C@H]([C@H](O)c3cccnc3)N2)cc1)n1cncn1` (single isomer, unassigned) [Example 141] was 1 to 10 nM; that for `CC(C(=O)Nc1ccc(CC2CC[C@H]([C@H](O)c3cccnc3)N2)cc1)n1nccn1` (single isomer, unassigned) [Example 142] was 1 to 10 nM.
The value for `CC(C(=O)Nc1ccc(CC2CC[C@H]([C@H](O)c3cccnc3)N2)cc1)n1nccn1` (single isomer, unassigned) [Example 143] was 1 to 10 nM.
For the molecule `CC(C(=O)Nc1ccc(CC2CC[C@H]([C@H](O)c3cccnc3)N2)cc1)c1cnccn1` (single isomer, unassigned) [Example 144], the EC50 lay within 1 to 10 nM.
The value for `CC(C(=O)Nc1ccc(CC2CC[C@H]([C@H](O)c3cccnc3)N2)cc1)c1cnccn1` (single isomer, unassigned) [Example 145] was 1 to 10 nM; that for `CC(F)(C(=O)Nc1ccc(CC2CC[C@H]([C@H](O)c3cccnc3)N2)cc1)c1ccccn1` (single isomer, unassigned) [Example 146] was 11 to 100 nM.
Consider `CC(F)(C(=O)Nc1ccc(CC2CC[C@H]([C@H](O)c3cccnc3)N2)cc1)c1ccccn1` (single isomer, unassigned) [Example 147], for which the EC50 was 101 to 1000 nM.
The value for `CC(C(=O)Nc1ccc(CC2CC[C@H]([C@H](O)c3cccnc3)N2)cc1)n1ccnn1` (single isomer, unassigned) [Example 148] was 1 to 10 nM.
The value for `CC(C(=O)Nc1ccc(CC2CC[C@H]([C@H](O)c3cccnc3)N2)cc1)n1ccnn1` (single isomer, unassigned) [Example 149] was 1 to 10 nM.
The value for `COC(=O)c1cn(C(C)C(=O)Nc2ccc(CC3CC[C@H]([C@H](O)c4cccnc4)N3)cc2)nn1` (single isomer, unassigned) [Example 150] was 1 to 10 nM.
Consider `COC(=O)c1cn(C(C)C(=O)Nc2ccc(CC3CC[C@H]([C@H](O)c4cccnc4)N3)cc2)nn1` (single isomer, unassigned) [Example 151], for which the EC50 was in the range of 11 to 100 nM.
With `Cc1nnc(C(C)C(=O)Nc2ccc(CC3CC[C@H]([C@H](O)c4cccnc4)N3)cc2)[nH]1` (single isomer, unassigned) [Example 152], the EC50 was 1 to 10 nM.
Under `Cc1nnc(C(C)C(=O)Nc2ccc(CC3CC[C@H]([C@H](O)c4cccnc4)N3)cc2)[nH]1` (single isomer, unassigned) [Example 153] stands 11 to 100 nM; under `Cc1[nH]nc2c1CCC2C(=O)Nc1ccc(CC2CC[C@H]([C@H](O)c3cccnc3)N2)cc1` (single isomer, unassigned) [Example 154], 1 to 10 nM; under `Cc1[nH]nc2c1CCC2C(=O)Nc1ccc(CC2CC[C@H]([C@H](O)c3cccnc3)N2)cc1` (single isomer, unassigned) [Example 155], 11 to 100 nM.
Under `O=C(Nc1ccc(CC2CC[C@H]([C@H](O)c3cccnc3)N2)cc1)C1CCc2sc(F)nc21` (single isomer, unassigned) [Example 156] stands 1 to 10 nM; under `O=C(Nc1ccc(CC2CC[C@H]([C@H](O)c3cccnc3)N2)cc1)C1CCc2sc(F)nc21` (single isomer, unassigned) [Example 157], 1 to 10 nM; under `O=C(Nc1ccc(CC2CC[C@H]([C@H](O)c3cccnc3)N2)cc1)C1CCc2sc(Br)nc21` (single isomer, unassigned) [Example 158], less than 1 nM.
Under `O=C(Nc1ccc(CC2CC[C@H]([C@H](O)c3cccnc3)N2)cc1)C1CCc2sc(Br)nc21` (single isomer, unassigned) [Example 159] stands 11 to 100 nM; under `O=C(Nc1ccc(CC2CC[C@H]([C@H](O)c3cccnc3)N2)cc1)C1CCc2nccc(=O)n21` (single isomer, unassigned) [Example 160], 1 to 10 nM.
With `O=C(Nc1ccc(CC2CC[C@H]([C@H](O)c3cccnc3)N2)cc1)C1CCc2nccc(=O)n21` (single isomer, unassigned) [Example 161], the EC50 lay in the range of 1 to 10 nM.
The value for `CC(C(=O)Nc1ccc(CC2CC[C@H]([C@H](O)c3cccnc3)N2)cc1)n1ncccc1=O` (single isomer, unassigned) [Example 162] was 1 to 10 nM; that for `CC(C(=O)Nc1ccc(C[C@@H]2CC[C@H]([C@H](O)c3cccnc3)N2)cc1)n1ncccc1=O` (single isomer, unassigned) [Example 163] was 1 to 10 nM.
The value for `CC(C(=O)Nc1ccc(CC2CC[C@H]([C@H](O)c3cccnc3)N2)cc1)n1cnccc1=O` (single isomer, unassigned) [Example 164] was 1 to 10 nM; that for `CC(C(=O)Nc1ccc(CC2CC[C@H]([C@H](O)c3cccnc3)N2)cc1)n1cnccc1=O` (single isomer, unassigned) [Example 165] was 1 to 10 nM.
Under `CC(C(=O)Nc1ccc(CC2CC[C@H]([C@H](O)c3cccnc3)N2)cc1)n1cccnc1=O` (single isomer, unassigned) [Example 166] stands 1 to 10 nM; under `CC(C(=O)Nc1ccc(C[C@@H]2CC[C@H]([C@H](O)c3cccnc3)N2)cc1)n1cccnc1=O` (single isomer, unassigned) [Example 167], 1 to 10 nM; under `Cc1noc2c1CCC2C(=O)Nc1ccc(CC2CC[C@H]([C@H](O)c3cccnc3)N2)cc1` (single isomer, unassigned) [Example 168], 1 to 10 nM.
In the case of `Cc1noc2c1CCC2C(=O)Nc1ccc(CC2CC[C@H]([C@H](O)c3cccnc3)N2)cc1` (single isomer, unassigned) [Example 169], the EC50 fell in the range of 11 to 100 nM.
Under `Cc1nnc2n1CCC2C(=O)Nc1ccc(CC2CC[C@H]([C@H](O)c3cccnc3)N2)cc1` (single isomer, unassigned) [Example 170] stands 11 to 100 nM.
As for `Cc1nnc2n1CCC2C(=O)Nc1ccc(CC2CC[C@H]([C@H](O)c3cccnc3)N2)cc1` (single isomer, unassigned) [Example 171], the EC50 was 11 to 100 nM.
The value for `CC(C(=O)Nc1ccc(CC2CC[C@H]([C@H](O)c3cccnc3)N2)cc1)c1nccs1` (single isomer, unassigned) [Example 174] was 1 to 10 nM; that for `CC(C(=O)Nc1ccc(CC2CC[C@H]([C@H](O)c3cccnc3)N2)cc1)c1nccs1` (single isomer, unassigned) [Example 175] was 1 to 10 nM; that for `Cc1cc(C(C)C(=O)Nc2ccc(CC3CC[C@H]([C@H](O)c4cccnc4)N3)cc2)[nH]n1` (single isomer, unassigned) [Example 176] was 11 to 100 nM.
Under `Cc1cc(C(C)C(=O)Nc2ccc(CC3CC[C@H]([C@H](O)c4cccnc4)N3)cc2)[nH]n1` (single isomer, unassigned) [Example 177] stands 101 to 1000 nM.
Under `CC(C(=O)Nc1ccc(CC2CC[C@H]([C@H](O)c3cccnc3)N2)cc1)c1ccn[nH]1` (single isomer, unassigned) [Example 178] stands 1 to 10 nM.

The record behind these values is patent US8501786B2, “Hydroxymethyl pyrrolidines as beta 3 adrenergic receptor agonists” (Merck Sharp & Dohme Corp., priority 2009, dated 2013).
